Measurements: US12404294B2, “Glycolipopeptide biosurfactants” (Croda International Plc, priority 2016, dated 2025)
≈ marks a conversion by molar mass, not a printed value.

What was measured:
[1] = Critical micelle concentration and surface tension of water, Du Nouy method (Kibron Delta-8 microtensiometer); type: physicochemical; conditions: for CMC: degassed deionized water, 24-25° C.; for Minimum Surface Tension: surface tension of water at CMC (water 72 mN/m)
Description: As summarized in Table 1, the critical micelle concentrations (CMCs) of NB-RLP1006, NB-RLP978, NB-RLP860, and NB-RLP-1048B were determined by the Du Nouy method utilizing a Kibron Delta-8 multichannel microtensiometer (Kibron Inc., Helsinki, Finland). All samples were prepared in degassed deionized water (Millipore, Etobicoke, ON, CA) at concentrations ranging from 0 to 2.0 mM. All measurements were recorded between 24 and 25° C. and performed in duplicate. The critical micelle concentration of both NB-RLP1006 and NB-RLP978 was 0.20 mM (0.02 wt %). […] The surface activity of NB-RLP1006 was compared to rhamnolipids A and B, which were purified from a commercially available rhamnolipid mixture (R90; AGAE Technologies, Corvallis, OR, USA) by reversed-phase HPLC.

[2] = test system: adult epidermal keratinocytes (HEKa); experiment: Cytotoxicity testing, alamarBlue, HEKa cells; type: cell-based, human; conditions: 24 h treatment; for HEKa (MIC90): 90% of growth inhibition; for IC50: Homo sapiens, HEKa
Description: (§1) To evaluate the safety profile of the glycolipopeptides, cytotoxicity testing was conducted against two normal human cell lines, BJ fibroblast cells ATCC CRL-2522 and adult epidermal keratinocytes (HEKa; Life Technologies, Carlsbad, CA, USA). […] Life Technologies, Carlsbad, CA, USA) and 50 μg/mL gentamicin (Sigma-Aldrich, St. Louis, MO, USA). Cells were cultured in […]^2 cell culture flasks and incubated at 37° C. in a humidified atmosphere of 5% CO2. For BJ fibroblasts culture media was refreshed every two to three days and cells were not allowed to exceed 80% confluence. […] At 80% confluence, the cells were counted, diluted to 10,000 cells/well in growth medium lacking antibiotics and 90 μL of cell suspension was transferred into the wells of 96-well treated cell culture plates. The plates were incubated as before to allow cells to adhere to the plates for 24 h before treatment. DMSO was used as the vehicle at a final concentration of 1%. […] The fibroblasts and HEKa cells were incubated as previously described for 24 h. All samples were tested in triplicate. […] AlamarBlue (Life Technologies, Carlsbad, CA, USA) was added to each well 24 h after treatment (10% v/v). Fluorescence (560/12 excitation, 590 nm emission) was monitored using a Varioskan Flash Multimode plate reader both at time zero and 4 h after the addition of alamarBlue. After subtraction of fluorescence at time zero from 4 h readings the percentage of cell viability relative to vehicle control wells was calculated.

[3] = test system: BJ fibroblast cells ATCC CRL-2522; experiment: Cytotoxicity testing, alamarBlue, BJ fibroblasts; type: cell-based, human; conditions: 24 h treatment; for BJ (MIC90): 90% of growth inhibition; for IC50: Homo sapiens, Fibroblast
Description: as §1

[4] = Aqueous solubility (remark); type: physicochemical; conditions: in words
[5] = Characteristic curvature (Cc) by HLD-NAC model, electrolyte scan with SDHS/toluene; type: physicochemical; conditions: NB-RLP1006/SDHS mixtures, toluene oil phase, NaCl 0 to 6.0% (w/v)
Description: The characteristic curvature (Cc) of NB-RLP1006 was determined using the hydrophilic-lipophilic difference-net average curvature (HLD-NAC) model to calculate the shift in chemical potential when NB-RLP1006 is transferred from the oil to the aqueous phase as a function of salinity by the following general equation: HLD=F(S)−k×EACN+F(A)−∝×ΔT+Cc where F(S) is a function of salinity, k is a coefficient equal to 0.17, EACN (effective alkane carbon number) is the number of carbons in the alkane oil phase, α is a coefficient dependent on the type of surfactant (ionic, ethoxylates, etc), and ΔT is the effect of temperature. Four mixtures of NB-RLP1006 and sodium dihexyl sulfosuccinate (SDHS) were prepared with a total surfactant concentration of 1.8 mg/mL using the following NB-RLP1006/SDHS ratios: 0, 12, 24, and 40 wt % NB-RLP1006. An electrolyte scan was performed for each mixture by varying the NaCl concentration from 0 to 6.0% (w/v). Each mixture was added to an equal volume of toluene, which constituted the oil phase, and shaken vigorously. […] A plot of the NB-RLP1006/SDHS molar ratios versus S* was generated and Cc was calculated from the line of best fit. The Cc value for NB-RLP1006 was determined to be +5.2, a value that reflects the hydrophobic nature of this biosurfactant.

[6] = Emulsification activity assay (emulsification index E24, kerosene); type: physicochemical
Description: V. paradoxus RKNM-096 was identified as a biosurfactant producer in a screen aimed at identifying bacterial producers of biosurfactants with emulsifying properties. The assay utilized to identify bacterial producers of biosurfactants was the emulsification activity assay. In this assay cultures were grown in 10 mL of liquid medium in 25 mm×150 mm glass tubes at 30° C. with shaking at 200 rpm for 5 days. After 5 days, the cells were removed by centrifugation and 3.5 mL of cell free culture broth was mixed with 3.5 mL of kerosene in a 13 mm×100 mm test tube with a screw cap tube. The tubes were vortexed for two minutes and then allowed to stand overnight at room temperature after which the height of the emulsion (hemuls) and the total height (htotal) of the liquid in the tube were measured. The emulsification index (E24) was calculated using the equation E24=hemuls/htotal×100%.
(§2) The emulsifying properties of NB-RLP1006 were determined using the emulsification index as described above. […] The emulsification of NB-RLP1006 is pH-dependent with E24 values of 8, 38, and 31% at pH 3, 6, and 8, respectively. The type of emulsion formed by NB-RLP1006 (e.g. oil-in-water or water-in-oil) was determined using the drop dilution test. An emulsion was formed by vigorously mixing a 1 mg/mL solution of RLP1006 in deionized water with an equal volume of kerosene for 1 min. A portion (20 μL) of the emulsion was transferred to 0.5 mL of deionized water and 0.5 mL of kerosene and dilution of the emulsion in each liquid was monitored.

[7] = Drop dilution test for type of emulsion; type: physicochemical; conditions: 1 mg/mL in deionized water with equal volume of kerosene
Description: as §2

Compound | CMC [1] [wt %] | CMC ([1]; duplicate) [mM] | Minimum Surface Tension [1] [mN/m] | HEKa (MIC90) [2] [µg/mL] | IC50 ([2]; error is standard deviation) [µg/mL] | BJ (MIC90) [3] [µg/mL] | IC50 ([3]; error is standard deviation) [µg/mL] | aqueous solubility [4] | characteristic curvature (Cc) [5] | emulsification index (E24) ([6]; 1 mg/mL in deionized water) [%] | emulsification index (E24) ([6]; pH 3) [%] | emulsification index (E24) ([6]; pH 6) [%] | emulsification index (E24) ([6]; pH 8) [%] | type of emulsion formed [7] | HEKa (IC50) ([2]; error is standard deviation) [µg/mL] | BJ (IC50) ([3]; error is standard deviation) [µg/mL]
CCCCCCCC(CC(=O)NC(CO)C(=O)NC(CO)CC(C)C)OC(=O)CC(CCCCCCC)OC(=O)CC(CCCCCCC)OC1OC(C)C(O)C(O)C1O (stereo not drawn) [NB-RLP860] | 0.07 | 0.85 | 36.2 | 128 | 15.5 ± 1.6 (≈ 18 µM) | 32 | 16.3 ± 0.3 (≈ 18.9 µM) | poor aqueous solubility | – | – | – | – | – | – | – | –
CCCC(CC(=O)NC(CO)C(=O)NC(CO)CC(C)C)OC(=O)CC(CCC)OC(=O)CC(CCC)OC1OC(C)C(O)C(OC2OC(C)C(O)C(O)C2O)C1O (stereo not drawn) [NB-RLP978] | 0.02 | 0.20 | 35.5 | – | – | – | – | – | – | – | – | – | – | – | – | –
CCCCCCCC(CC(=O)NC(CO)C(=O)NC(CO)CC(C)C)OC(=O)CC(CCCCCCC)OC(=O)CC(CCCCCCC)OC1OC(C)C(O)C(OC2OC(C)C(O)C(O)C2O)C1O (stereo not drawn) [NB-RLP1006] | 0.02 | 0.20 | 35.5 | 64 to 128 | 15.5 ± 1.7 (≈ 15.4 µM) | 32 | 19.5 ± 2.4 (≈ 19.4 µM) | – | +5.2 | 53 | 8 | 38 | 31 | oil-in-water (o/w) and o/w | – | –
CCCCCCCC(CC(=O)NC(CO)C(=O)NC(CO)CC(C)C)OC(=O)CC(CCCCCCC)OC(=O)CC(CCCCCCC)OC1OC(C)C(O)C(OC2OC(C)C(O)C(OC(C)=O)C2O)C1O (stereo not drawn) [NB-RLP1048B] | 0.09 | 0.85 | 36.9 | 64 to 128 | 19.3 ± 4 (≈ 18.4 µM) | 32 | 18.7 ± 1.6 (≈ 17.8 µM) | poor aqueous solubility | – | – | – | – | – | – | – | –
Zinc pyrithione [reference compound] | – | – | – | 1 | – | 4 | – | – | – | – | – | – | – | – | 0.20 ± 0.001 | 2.2 ± 0.3
